Measurements as given in patent US20170321282A1, “IMPROVED TREATMENTS OF CANCER RESISTANT TO TAXOIDS” (INSTITUT GUSTAVE ROUSSY, priority 2014, published 2017).

Experiments:
parental IGR-CaP1 cells = assay: Colony formation (clonogenicity) assay, parental cells; assay type: cell-based, human; settings: 25 μM LY2157299 alone, 72 h pretreatment, stained 2 weeks later
Method: (§1) Colony formation assay. Cells were pretreated with 25 μM LY2157299 or vehicle for 72 hours. Then, cells were treated with Docetaxel and/or 25 μM LY2157299, control cells were treated with vehicle. Docetaxel was used at 12 nM in parental IGR-CaP1 and 100 nM in resistant IGR-CaP1-R100. Cells were stained with Crystal Violet 2 weeks later. Data are represented as mean±SD. […] Representative cell colonies obtained in each condition is shown.
(§2) IGR-CaP1 and IGR-CaP1-R cells were plated in 6 well plates for 24 hours. Cells were pre-treated with 25 μM LY2157299 or vehicle for 72 hours, and then co-treated with LY2157299 and docetaxel (12 nM for parental cells, 100 nM for resistant cells). After 2 weeks, clones were methanol fixed and stained using Crystal violet (sigma). Clones were counted using ImageJ software.

[1] = tested on: resistant IGR-CaP1-R100 cells; assay: Colony formation (clonogenicity) assay, docetaxel-resistant cells; assay type: cell-based, human; settings: 25 μM LY2157299 alone, 72 h pretreatment, stained 2 weeks later
Method: as §1, §2

[2] = tested on: SHISA3 expression in IGR-CaP1-R25 tumors; assay: SHISA3 mRNA expression by quantitative PCR in docetaxel-resistant xenograft tumors; assay type: in vivo, nude athymic mice; settings: docetaxel vs vehicle
Source text: (§3) FIG. 1: Expression of SHISA3 in docetaxel-resistant prostate cancer cells and in other cancers A. Real-time qRT-PCR showing the inhibition of SHISA3 gene expression in docetaxel-resistant IGR-CaP1-R and PC3-R cells. B. Whole cell extracts of parental and drug-resistant cells were subjected to immunoblotting with antibodies specific for SHISA3 or β-actin (loading control). Arrows indicate specific bands corresponding to SHISA3, star indicates a non-specific band. C. […] D-E. SHISA3 mRNA was assessed by determining ΔCt in normal tissues and in several solid tumors. Results were normalized to the universal RNA included in each panel. In D, out of all the tested tissues for SHISA3 expression, only tissues with the highest expression were shown. In E, the bars represent the mean. P value was derived from the two-tailed Student's t test. F. Subcellular localization after transfection of SHISA3-Flag-GFP in HEK cells. Cells were analyzed by confocal microscopy. GFP stained the transfected cells, SHISA3 was labeled with anti-SHISA3 antibody (red) and nucleus was stained with Dapi. […] Secondary antibodies were used as followed: Alexa-568 for SHISA3 and Alexa-647 for Calnexin and GM130. G. SHISA3 mRNA expression was assessed in vivo on nude athymic mice models. […] SHISA3 expression has been obtained by quantitative PCR and normalized by its expression in a control sample of Universal RNA. […]

[3] = tested on: SHISA3 expression in IGR-CaP1 tumors; assay: SHISA3 mRNA expression by quantitative PCR in docetaxel-sensitive xenograft tumors; assay type: in vivo, nude athymic mice; settings: docetaxel vs vehicle
Source text: as §3

[4] = tested on: parental IGR-CaP1 and PC3 cells; assay: EMT induction by TGFβ1, immunoblot of SHISA3 and EMT markers; assay type: cell-based, human; settings: 10 ng/ml TGFβ1, 5 days
Source text: A. Schematic structure of SHISA3 and SHISA3-Flag sharing a signal peptide (black box), an amino-terminal CRD (blue box), a predicted transmembrane segment (TM), and a carboxy-terminal proline-rich region (Grey box). The position of the FLAG tag (red box) is indicated. B. SHISA3 and endogenous TGFβR2 interaction. Cells extracts from IGR-CaP1, PC3 and HEK cells transfected with SHISA3-Flag were immunoprecipitated with anti-TGFβR2, anti-EGFR, anti-Flag antibodies or IgG as control and analyzed by immunoblot using anti-TGFβR2, anti-EGFR and anti-SHISA3 antibodies. Input represents 10% of the IP. C. Co-localization of SHISA3 and TGFβR2 in cytoplasmic granules and speckles at the membrane. Subcellular localizations of SHISA3 and TGFβR2 were analyzed by confocal microscopy after co-transfection of SHISA3-Flag and HA-TGFβR2 in HEK cells using anti-SHISA3 and anti-TGFβR2 primary antibodies, and Alexa-568- and Alexa-647-conjugated secondary antibodies respectively. Nuclei were labeled with Dapi. Overlapped fluorescent signals (yellow) indicated co-localized proteins. D. SHISA3 and EMT markers expression 5 days after cell treatment with TGFβ1. […] Quantification of bands relative to beta actin is shown.
2,5.10^4 IGR-CaP1 cells and 5.10^4 PC3 cells were plated in 6-well plates for 24 hours then transiently transfected with 10 nM synthetic siRNA targeting SHISA3 gene (Stealth RNAi™, siSHISA3-94: HSS152694, siSHISA3-95: HSS152695, and siSHISA3-96: HSS152696) using lipofectamine RNAiMax (Invitrogen) or treated with 10 ng/ml TGFβ1. After 36 hours, a second treatment was performed in order to maintain EMT induction over 5 days. Negative controls were obtained by treating cells with siRNA negative controls (siNT) (Invitrogen) or TGFβ1 vehicle. Whole cell extracts were prepared in RIPA buffer complemented with proteases inhibitors (Roche) and phosphatase inhibitors (Sigma).
Fifty μg of lysates were used for Western-Blot probed with specific antibodies: SHISA3 (Abgent), E-cadherin (BD Biosciences, clone 36), N-Cadherin (BD Biosciences, Clone 32), β-catenin (Santa Cruz, clone 12F7), Vimentin (BD Pharmingen, clone RV202), Occludin (Life Technologies, Clone OC-3F10), Plakoglobin (Sigma-Aldrich, Clone 15F11), Snail (Cell Signaling, Clone C15D3), ZEB1 (Cell Signaling, D80D), EGFR (Cell Signaling, Clone D38B1), TGFβR2 (Santa Cruz, Clone E-6), Ubiquitin (Santa Cruz, Clone P4D1), Flag (Sigma, M2). β-actin (Sigma-Aldrich, Clone AC-15) was used as a loading control. Immunoblot analyses were performed using the enhanced chemoluminescence-based detection kit (Pierce).

`Cc1cccc(-c2nn3c(c2-c2ccnc4ccc(C(N)=O)cc24)CCC3)n1` [LY2157299] was tested, and the “survival of parental cells (colony formation)” value (parental IGR-CaP1 cells) was “did not affect the survival” and the “survival of resistant cells (colony formation)” value [1] was “did not affect the survival”.
`CC(=O)O[C@@]12CO[C@@H]1C[C@H](O)[C@@]1(C)C(=O)[C@H](O)C3=C(C)[C@@H](OC(=O)[C@H](O)[C@@H](NC(=O)OC(C)(C)C)c4ccccc4)C[C@@](O)([C@@H](OC(=O)c4ccccc4)[C@H]21)C3(C)C` [docetaxel] was tested, and the “SHISA3 gene expression in tumors” value [2] was “did not affect its expression” and the “SHISA3 gene expression in tumors” value [3] was “strong decrease”.
For TGFβ: TGFβ1 purchased from R&D Systems, the CDH1 expression [4] was “decrease”, the CDH2 expression [4] was “increase” and the VIM expression [4] was “increase”. The SHISA3 expression ([4]; vs control cells) was “decrease”.
